Source: paper PMC4601051, “Discovery of Indoline-2-carboxamide Derivatives as a New Class of Brain-Penetrant Inhibitors of Trypanosoma brucei” (Journal of Medicinal Chemistry, 2015)
“And” between values parts separate entries of the source, which are not always exact repeats. Identical values can stand only once. Like-named read-outs stand apart in the source and are kept apart here.

Tests used:
[1] = test system: bloodstream form T. brucei brucei; assay: T. b. brucei whole cell parasite (trypanosome growth) assay; format: cell-based, Trypanosoma brucei brucei; conditions: for EC50: Trypanosoma brucei, mean of two or more determinations, 69 h + 4 h resazurin, read-out: T. b. brucei EC50
Experimental: This was conducted as previously described.[27] Cell culture plates were stamped with 1 μL of an appropriate stock concentration of test compound, followed by addition of 200 μL of trypanosome culture (HMI9-T, 10% FCS) to each well at a density of 2000 cells per well (except column 12 receiving media only). […] Potency was carried out using 10-point dose–response curves.

[2] = In vivo mouse pharmacokinetics; conditions: for Cmax / Tmax / half-life / AUC(0-t) at 8 h / AUC(0-t): female, mouse, in vivo, 10 mg/kg, NMRI mice; for AUC(0-t) at 8 h: read-out: AUC0–8; for AUC(0-t): read-out: AUC0–8 (converted)
Experimental: Each compound was dosed as a bolus solution intraperitoneally at 10 mg free base/kg (dose volume, 10 mL/kg; dose vehicles used, 10% DMSO; 40% PEG400; 50% Milli-Q water or 5% DMSO; 40% PEG400; 55% saline) to female HRN (1 only) or NMRI mice (n = 3) or dosed orally by gavage as a solution at 10 mg free base/kg (dose volume, 10 mL/kg; dose vehicle, 10% DMSO; 40% PEG400; 50% Milli-Q water) to female NMRI mice (n = 3). Female NMRI mice were chosen, as these represent the sex and strain used for the stage 1 and stage 2 HAT efficacy models. Blood samples were taken from each mouse at 5 (IP only), 15, and 30 min, 1, 2, 4, 6, and 8 h post dose, mixed with two volumes of distilled water, and stored frozen until UPLC/MS/MS analysis. Pharmacokinetic parameters were derived from noncompartmental analysis of the blood concentration time curve using PK solutions software v 2.0 (Summit Research Services, USA).

[3] = Microsomal intrinsic clearance (Clint), mouse; format: in vitro ADME; conditions: mouse liver microsomes, 0.5 μM compound
Experimental: (§1) Each test compound (0.5 μM) was incubated with pooled female CDI mouse liver microsomes, pooled male Sprague–Dawley rat microsomes, or pooled mixed gender human liver microsomes (Tebu-Bio, UK; 0.5 mg/mL 50 mM potassium phosphate buffer, pH 7.4) and the reaction started with addition of excess NADPH (8 mg/mL, 50 mM potassium phosphate buffer, pH 7.4). Immediately, at time zero, then at 3, 6, 9, 15, and 30 min, an aliquot (50 μL) of the incubation mixture was removed and mixed with acetonitrile (100 μL) to stop the reaction. Internal standard was added to all samples, and the samples were centrifuged at 1825g for 10 min to sediment precipitated protein. The plates were then sealed prior to UPLC/MS/MS analysis using a Quattro Premier XE (Waters Corporation, USA).
(§2) XLfit (IDBS, UK) was used to calculate the exponential decay and consequently the rate constant (k) from the ratio of peak area of test compound to internal standard at each time point.

[4] = Mouse brain penetration (brain:blood ratio); conditions: in vivo, dosed intravenously at 0.5 or 1 mg/kg, levels measured after 5 min, female NMRI mice, read-out: B:B (brain to blood ratio)
Experimental: Each compound was dosed as a bolus solution intravenously at 0.5 or 1 mg free base/kg (dose volume, 5 mL/kg; dose vehicle, 10% DMSO; 40% PEG400; 50% Milli-Q water) to female NMRI mice (n = 6). At 5 and 30 min following intravenous bolus injection of test compound, mice (n = 3/time point) were placed under terminal anesthesia with isofluorane. A blood sample was taken by cardiac puncture and mixed with two volumes of distilled water, the mice decapitated, and the brain removed. Diluted blood and brains were stored frozen until preparation and analysis by UPLC/MS/MS. For each mouse at each time point, the concentration in brain (ng/g) was divided by the concentration in blood (ng/mL) to give a brain:blood ratio. The mean value obtained was quoted.

[5] = Plasma protein binding by equilibrium dialysis, mouse; format: in vitro ADME; conditions: read-out: plasma protein binding, Fu (fraction unbound)
Experimental: (§3) The software package StarDrop by Optibrium was used to calculate physicochemical parameters including log P, molecular weight, and polar surface area (PSA). The aqueous kinetic solubility of the compounds was measured using laser nephelometry as previously described.[40] The plasma protein binding of the compounds was determined by the equilibrium dialysis method.[12]

[6] = in vitro; conditions: human, MRC-5 fibroblasts
Experimental: Proliferation assays using bloodstream form T. brucei brucei and human MRC-5 fibroblasts were conducted using a modification of the cell viability assay as previously reported.[27],[39]
MRC-5 cells (2000 cells per well) were seeded in 200 μL of DMEM, 10% FCS, and allowed to adhere overnight. One microliter of test compound was added to each well on the day of assay initiation.
The final DMSO level was 0.5% in all cases.

[7] = test system: panel of receptors, including dopamine, serotonin, histamine, and muscarinic receptors; assay: NIMH Psychoactive Drug Screening Program (PDSP) receptor panel; format: binding; conditions: significant inhibition is considered > 50%
Excerpt: However, the observed toxicity prevents further progression of the compounds. To try and identify a possible driver for toxicity, that may then offer an opportunity to design out this unwanted effect, the key compounds were screened against a panel of receptors at the NIMH Psychoactive Drug Screening Program (PDSP).[36],[37] No significant activity against a large panel of receptors, including dopamine, serotonin, histamine, and muscarinic receptors (see Supporting Information) was observed.
S2: Details of receptors screened at the NIMH Psychoactive Drug Screening Program […]
receptors screened. Significant inhibition is considered > 50%. In cases where negative inhibition (-) is seen, this represents a stimulation of binding. The receptors screened were 5- […]
HT7, Alpha1A, Alpha1B, Alpha1D, Alpha2A, Alpha2B, Alpha2C, Beta1, Beta2, Beta3, BZP rat Brain site, D1, D2, D3, D4, D5, DAT, DOR, GABBA, H1, H2, H3, KOR, M1, M2, M3, M4, M5, MOR, NET, PBR, SERT, Sigma1 and Sigma2

[8] = Microsomal intrinsic clearance (Clint), rat; format: in vitro ADME; conditions: rat liver microsomes, 0.5 μM compound
Experimental: as §1, §2

[9] = Brain tissue binding by equilibrium dialysis; format: in vitro ADME; conditions: Sprague-Dawley, brain homogenate; rat (male SD rat); read-out: brain tissue binding (rat), Fu
Experimental: In brief, a 96-well equilibrium dialysis apparatus was used to determine the free fraction in the brain for the test compound (HT Dialysis LLC, Gales Ferry, CT). Membranes (12–14 kDa A cutoff) were conditioned in deionized water for 60 min, followed by conditioning in 80:20 deionized water:ethanol for 20 min and then rinsed in artificial cerebrospinal fluid (CSF) before use. Mouse brain was removed from the freezer and allowed to thaw on the day of experiment. […] Diluted brain homogenate was spiked with the test compound (10 ug/g), and 150 μL aliquots (n = 6 replicate determinations) loaded into the 96-well equilibrium dialysis plate. Dialysis vs artificial CSF (150 μL) was carried out for 5 h in a temperature controlled incubator at ca. 37 °C (Stuart scientific Ltd., UK) using an orbital microplate shaker at 125 rpm (Stuart scientific Ltd., UK). […] All samples were analyzed by means of UPLC/MS/MS on a Quattro Premier XE mass spectrometer (Waters Corporation, USA). The unbound fraction was determined as the ratio of the peak area in artificial CSF to that in brain, with correction for dilution factor according to eq 1.[42] […] 1 where D = dilution factor in brain homogenate and Fu,apparent is the measured free fraction of diluted brain homogenate.

[10] = Microsomal intrinsic clearance (Clint), human; format: in vitro ADME; conditions: human liver microsomes, 0.5 μM compound
Experimental: as §1, §2

[11] = Aqueous kinetic solubility by laser nephelometry; format: physicochemical; conditions: aqueous medium, Table 7
Experimental: as §3

Compound | EC50 [1] | Cmax ([2]; IP) | Tmax ([2]; IP) | half-life ([2]; IP) | AUC(0-t) at 8 h ([2]; IP) | AUC(0-t) ([2]; IP) | Cmax ([2]; PO) | Tmax ([2]; PO) | half-life ([2]; PO) | AUC(0-t) at 8 h ([2]; PO) | AUC(0-t) ([2]; PO) | mouse microsomal intrinsic clearance [3] | Kp at 5 min [4] | fraction unbound [5] | EC50 at 69 h [6] | other results
CNC(=O)C1Cc2ccccc2N1C(=O)COc1ccc(F)cc1 (stereo not shown) [Compound 35, 1-(2-(4-fluorophenoxy)acetyl)-N-methylindoline-2-carboxamide] | 20 nM | 910 ng/mL and 2.8 µM | 15 min | 66 min | 5.6 µM·h | 1830 ng·h/mL | 180 ng/mL and 550 nM | 15 min | 42 min | 0.8 µM·h | 250 ng·h/mL | 1.2 mL min^–1 g^–1 and 1.2/ND mL min^–1 g^–1 | 1.5 | 0.42 | > 50000 nM | inhibition against receptors screened [7]: did not show significant inhibitor
CNC(=O)C1Cc2cc(F)ccc2N1C(=O)COc1ccc(F)cc1 (stereo not shown) [Compound 55, 5-fluoro-1-(2-(4-fluorophenoxy)acetyl)-N-methylindoline-2-carboxamide] | 80 nM | 2900 ng/mL and 8.4 µM | 60 min | 72 min | 34 µM·h | 11800 ng·h/mL | 1500 ng/mL and 4.3 µM | 30 min | 120 min | 10 µM·h | 3500 ng·h/mL | 1.3 mL min^–1 g^–1 | 1.4 | 0.33 | > 50000 nM | Hill slope ([1]; T. brucei EC50 curve): 4.4; microsomal intrinsic clearance, rat [8]: 2.1 mL min^–1 g^–1; fraction unbound at 5 h, 10 ug/g [9]: 0.29; higher AUC compared to 1 ([2]; IP, female NMRI mice): 1.5–6.5 fold; microsomal intrinsic clearance, human [10]: 0.5 mL min^–1 g^–1 and < 0.5 mL min^–1 g^–1; solubility [11]: > 100 µg/mL
